Measured values published in paper PMC6394990, “Detailed characterization of the solution kinetics and thermodynamics of biotin, biocytin and HABA binding to avidin and streptavidin” (PLoS ONE, 2019).
Where “and” joins values, the source holds several entries; their conditions need not be identical. Equal entries are not always repeated. Entries after “also recorded” stand apart in the source; their conditions may differ.

How the values were obtained:
avidin (AV) [1] = biological target: T1, avidin (AV) (Gallus gallus, UniProt P02701); assay: Dissociation (displacement/replacement) of dye-labeled biotin complexes by unlabeled B7; format: binding; details: AB1; probe 20 nM, AV 260 nM; unlabeled B7 2,000 nM; 20°C
T1 construct: purchased Calbiochem (La Jolla, CA)
Protocol: Biotin dissociation was determined using labelled biotin (BcO and BFl) displaced by unlabeled biotin using minimally occupied and fully occupied binding sites. In the minimally occupied measurements, SAV is prepared with less than one site on average occupied by labelled biotin (AB1), using 800 nM SAV and 40 nM of BcO or BFl. For saturated SAV-labelled biotin (AB4) complexes, equimolar binding sites and labelled ligand were prepared, 40 nM SAV and 40 nM of BcO or BFl. The AB1 complexes were challenged in displacement experiments with several concentrations of unlabeled B7 (1500 nM, 1750 nM, 2000 nM and 2500 nM) at 20 ± 0.1°C. […]
The rss measurements were collected using the Giblin-Parkhurst modification of the Wampler-Desa method as described previously. The fluorescence signal was detected in a model A-1010 Alphascan fluorimeter (Photon Technologies, Inc., Birmingham, NJ) equipped with an R928 PMT (Hamamatsu, Bridgewater, NJ). […] The fluorimeter G factor was determined using a film polarizer and analyzer with an excitation at 488 nm provided by a xenon arc lamp (model A1010, Photon Technologies Inc, Princeton, NJ). The dissociation reactions of dye-labeled B7 and protein complexes were monitored by fluorescence changes and were also collected in the fluorimeter described above. […]

avidin (AV) [2] = biological target: T1, avidin (AV); assay: Quantum yields (QY), AV complex; format: physicochemical; details: for Quantum Yield QY: AV complex (AB1); for dQY-AV: fractional change of QY, AV complex against dye
Protocol: (§1) The lifetimes (τ), steady state anisotropies (rss), time-resolved anisotropies (rt) and quantum yields (QY) of the complexes (at 20 ± 0.1°C and pH 8) were collected with a dye-labeled B7 probe concentration of 20–40 nM and 1040–2080 nM of either protein (AV or SAV) to ensure that only one binding site in the tetramer was filled with a ligand (AB1 filling model).
The QY values were obtained by using a reference fluorophore of known quantum yield and were calculated according to Parker and Rees, where the reference dye was fluorescein in 0.1N sodium hydroxide solution [46]. The emission fluorescence scans were collected from 480 nm to 700 nm with the excitation light set at 460 nm provided by the xenon arc lamp described above. These measurements were made on the AB1 complexes at high protein concentration.

[3] = Steady-state anisotropy (rss), unbound probe; format: physicochemical
Protocol: as §1
The rss measurements were collected using the Giblin-Parkhurst modification of the Wampler-Desa method as described previously. The fluorescence signal was detected in a model A-1010 Alphascan fluorimeter (Photon Technologies, Inc., Birmingham, NJ) equipped with an R928 PMT (Hamamatsu, Bridgewater, NJ). The excitation was provided by an Ar^+ ion laser (Coherent Innova 70–4 Argon, Santa Clara, CA) at 488 nm and 5–10 mW of power incident on the sample. […] The fluorimeter G factor was determined using a film polarizer and analyzer with an excitation at 488 nm provided by a xenon arc lamp (model A1010, Photon Technologies Inc, Princeton, NJ). The dissociation reactions of dye-labeled B7 and protein complexes were monitored by fluorescence changes and were also collected in the fluorimeter described above.

avidin (AV) [4] = biological target: T1, avidin (AV); assay: Steady-state anisotropy (rss), AV complex; format: physicochemical; details: for Steady State Anisotropy rss: AV complex (AB1), 20°C; for AV-increment (%): increase of rss against unbound; for rss, + AV: steady-state anisotropy
Protocol: as §1
The rss measurements were collected using the Giblin-Parkhurst modification of the Wampler-Desa method as described previously. The fluorescence signal was detected in a model A-1010 Alphascan fluorimeter (Photon Technologies, Inc., Birmingham, NJ) equipped with an R928 PMT (Hamamatsu, Bridgewater, NJ). The excitation was provided by an Ar^+ ion laser (Coherent Innova 70–4 Argon, Santa Clara, CA) at 488 nm and 5–10 mW of power incident on the sample. A photoelastic modulator (PEM-80; HINDS International, Inc., Portland, OR) was placed between the laser source and the sample compartment with a retardation level of 1.22π, and the PEM stress axis orientated 45° with respect to the E vector of the laser beam. Two signals were acquired with the PEM alternating between “on” and “off” positions for 10 seconds and the data fitted to a least squared straight line to minimize noise. A minimum of six of these independent measurements were averaged to acquire the rss values. The fluorimeter G factor was determined using a film polarizer and analyzer with an excitation at 488 nm provided by a xenon arc lamp (model A1010, Photon Technologies Inc, Princeton, NJ). The dissociation reactions of dye-labeled B7 and protein complexes were monitored by fluorescence changes and were also collected in the fluorimeter described above.

avidin (AV) [5] = biological target: T1, avidin (AV); assay: Time-resolved anisotropy, cone angle, AV complex; format: physicochemical; details: for Cone Angle Ω: AV complex (AB1), 20°C; for W: complex with AV
Protocol: as §1
The lifetimes were collected in a FluoTime100 fluorescence spectrometer (PicoQuant, GmbH, Berlin, Germany) with the excitation light source provided by a picosecond pulsed diode laser (PicoQuant, GmbH, Berlin, Germany) at 470 nm and 20 MHz. The emission was collected at 520 nm through a non-fluorescing 520 nm interference filter (Oriel Corp., Stratford, CT) followed by a liquid filter of 1cm path length containing 24 mM acetate buffered dichromate at pH 4, between the sample and detector to eliminate traces of excitation light. The fluorescence decays were fit by a nonlinear least-squares minimization based on the Marquardt algorithm embedded in the Fluofit software (PicoQuant GmbH). Twenty-eight decays were collected per sample, the decays were grouped in four sets, consisting of seven sample decays and one Instrument Response Function, IRF, for deconvolution proposes. The decay sets were globally fitted to mono- or bi-exponential decay models that were discriminated using the statistical parameter χ^2. The rt data were acquired with the fluorimeter described above equipped with a polarizer and an analyzer to acquire the parallel VV(t) and perpendicular VH(t) decays. The PicoQuant G factor was calculated according to: G = ∫HV(t)dt/∫HH(t)dt, where HV(t) and HH(t) were the decays collected with the emission polarizer selecting vertical and horizontal E-vector passing orientations, respectively, and the excitation polarizer set at horizontally position.
The r¯t values were calculated according to Eq 11 where the pre-exponential “f” corresponds to the slow phase that derives from the lifetime of the global motion (τG) which was fitted within a range of expected correlation time for the complex size; consequently, facilitating resolution of the fast correlation lifetime (τp) and the corresponding pre-exponential (1-f). r¯(t)=(1−f)∙exp(−t/τp)+f∙exp(−t/τG) (11) The f parameter was constrained to the observed rss (Eq 12) where F^(t) (Eq 13) is normalized (α1 + α2 = 1) and derived from the observed fluorescence decays of the complex. rss=0.4∫r¯(t)∙F^(t)dt (12) Where F^(t)=α1exp(−t/τ1)+α2exp(−t/τ2)/α1τ1+α2τ2 (13)
In a simple model, the transition moment is assumed to wobble within a cone of semi-apical angle Ω [59], where the cone axis is normal to the surface of a sphere that corresponds to the macromolecule. The angle Ω is calculated from Eq 14.

T1 sequence (P02701 25-152): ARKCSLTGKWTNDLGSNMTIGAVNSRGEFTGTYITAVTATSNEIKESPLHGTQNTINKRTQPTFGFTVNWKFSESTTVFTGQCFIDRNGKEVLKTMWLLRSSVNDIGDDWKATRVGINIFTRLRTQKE

| Compound | koff displacement / koff replacement of AV complexes (avidin (AV) [1]) | Quantum Yield QY (avidin (AV) [2]) | 488, correction, absR/abs (avidin (AV) [2]; complex with AV) | QY (avidin (AV) [2]; complex with AV) | QY multiplied by the 488 correction absR/abs (avidin (AV) [2]; complex with AV) | dQY-AV (avidin (AV) [2]) | rss, Unbound [3] | Steady State Anisotropy rss (avidin (AV) [4]) | AV-increment (%) (avidin (AV) [4]) | rss, + AV (avidin (AV) [4]) | Cone Angle Ω (avidin (AV) [5]) [degrees] | W (avidin (AV) [5]) |
| --- | --- | --- | --- | --- | --- | --- | --- | --- | --- | --- | --- | --- |
| O=C(CCCC[C@@H]1SC[C@@H]2NC(=O)N[C@@H]21)NCCNC(=O)c1ccc(-c2c3ccc(=O)cc-3oc3cc(O)ccc23)c(C(=O)O)c1 [BFl, Biotin-4-fluorescein] | could not detect neither displacement nor replacement; also recorded: could not be detected | 0.44 ± 0.01 | 1.171 | 0.44 and 0.44 ± 0.01 | 0.5154 | -0.1538 | 0.021 | 0.180 ± 0.003 | 757.1 | 0.18 | 51 ± 2 | 51 |
| NC(CCCCNC(=O)CCCC[C@@H]1SC[C@@H]2NC(=O)N[C@@H]21)C(=O)NCCCCCNC(=O)c1ccc(-c2c3cc(F)c(=O)cc-3oc3cc(O)c(F)cc23)c(C(=O)O)c1 (stereo partly shown) [BcO, Oregon green 488 Biocytin] | could not detect neither displacement nor replacement; also recorded: could not be detected | 0.62 ± 0.02 | – | 0.62 and 0.62 ± 0.02 | – | -0.3187 | 0.023 | 0.187 ± 0.009 | 713.0 | 0.187 | 50 ± 2 | 50 |
